Source: US12636371B2, “Chemically coupled transporter for low-hydrophobicity bioactive drugs into the central nervous system” (Skybio LLC, priority 2021, dated 2026)

Assays:
[1] = tested on: SH-SY5Y cells; experiment: MTT cytotoxicity assay in neuroblastoma SH-SY5Y cells; type: cell-based; conditions: 1, 10 and 20 μM, 24 h
Protocol: The impact of Pegasus (D9) on cellular viability was studied in SH-SY5Y neuroblastoma cell lines using the colorimetric Thiazolyl Blue Tetrazolium […] (MTT) metabolic activity assay (Mosmann T. Rapid colorimetric assay for cellular growth and survival: application to proliferation and cytotoxicity assays. J Immunol Methods 1983; 65(1-2): 55-63), which reports viable cell number based on mitochondrial activity.
SH-SY5Y cells were seeded in 96-well plates at 15,000 cells/well with 100 μl of DMEM supplemented with 10% Fetal Bovine Serum (FBS) and 1% Antibiotics/Antimycotics, and incubated for 24 h at 37° C. and 5% CO2. Afterwards, cells were treated with a 25 μl aliquot of a D9 solution 5 μM, 50 μM or 100 μM (final concentration in well 1 μM, 10 μM and 20 μM, respectively) and incubated for 24 h. To determine cell viability, the MTT assay was used as previously described by Mosmann (1983). All experiments were performed in sextuplicate, and the relative cell viability (%) was expressed as a percentage relative to the untreated control condition.

[2] = target: D1 dopamine receptor (Homo sapiens, UniProt P21728); experiment: D1 receptor agonist assay, cAMP Nomad biosensor, HEK_cAMPNmd_FP650_D1 cells
Protocol: HEK_cAMPNmd_FP650_D1 and U2OS_cAMPNmd_FP650_D2 cells were seeded at a density of 30.000 and 20.000 cells/well, respectively, in 96-well plates. Cells were maintained in DMEM or DMEM-F12 medium supplemented with 10% FBS during 24 h at 37° C. in a humidified 5% CO2 atmosphere.
To detect Nomad biosensor activation, the assay medium was removed and replaced by 100 ml of DPBS with calcium and magnesium. […] In U2OS_cAMPNmd_FP650_D2 cells, images were acquired using the CellInsight CX7 HCS Platform, and the number of fluorescent vesicles per cell was quantified with the HCS Studio Cell Analysis Software.
The effect of the compounds in the regulation of D1 or D2 receptors' activation was analyzed measuring the CAMP signaling using the Nomad biosensor-based assay.

[3] = tested on: SH-SY5Y cells; experiment: Lysosome localization and number, LysoTracker Deep Red confocal microscopy; type: cell-based; conditions: 200 μM, 24 hs
Description: Lysosomes are the final destination of the autophagic pathway. LysoTracker™ fluorescent probes, dyes that preferentially accumulate in vesicles with acidic pH, are widely used for tracing lysosomes in living and fixed cells in order to study organelle localization, their resident proteins, assess organelle functionality, quantify lysosome numbers and abnormalities in vesicular pH (Eskelinen E L, Schmidt C K, Neu S, et al. Disturbed cholesterol traffic but normal proteolytic function in LAMP-1/LAMP-2 double-deficient fibroblasts. Mol Biol Cell 2004; 15(7): 3132-45), and to examine the efficiency of autophagosome/lysosome fusion in live cells (González-Polo R A, Boya P, Pauleau A L, et al. The apoptosis/autophagy paradox: autophagic vacuolization before apoptotic death. J Cell Sci 2005; 118 (Pt 14): 3091-102.).
The effect of Pegasus on lysosomal activity in SH-SY5Y cells was estimated by visualizing the localization and number of lysosomes, marked by LysoTracker™ Deep Red (ThermoFisher #L12492), after treatment with 200 μM of Pegasus for 24 hs. After incubation, cells were fixed in PFA 4% prepared for confocal microscopy. Images were acquired in a ZEISS LSM800 confocal microscope.

[4] = target: T1, recombinant human AS (α-synuclein) (Homo sapiens, UniProt P37840); experiment: Thioflavin T fluorescence assay of AS amyloid aggregation; type: biochemical; conditions: 70 μM AS, 10 or 50 μM compound, 37° C., 600 rpm, 20 mM HEPES pH 7.4
T1 construct: made in house
Protocol: In order to evaluate the effect of Pegasus (D9) on AS amyloid fibril formation, aggregation reactions were performed according to LeVine (LeVine H, 3rd. Thioflavine T interaction with synthetic Alzheimer's disease beta-amyloid peptides: detection of amyloid aggregation in solution. Protein Sci 1993; 2(3): 404-10; LeVine H, 3rd. Quantification of beta-sheet amyloid fibril structures with thioflavin T. Methods Enzymol 1999; 309: 274-84.). In brief, the formation of cross-ß structures were followed by adding Thioflavin T (ThT), a fluorescent cross-β reporter probe, to aliquots extracted from the incubation mixture at different times.
Expression and purification of recombinant human AS were performed as previously described (Hoyer W, Antony T, Cherny D, Heim G, Jovin T M, Subramaniam V. Dependence of AS aggregate morphology on solution conditions. J Mol Biol 2002; 322(2): 383-93), and purity was assessed by SDS-PAGE. […] The protein concentration was determined by absorbance at 275 nm using the extinction coefficient ε275=5600 cm^−1 M^−1. […]
For aggregation reactions, aliquots of monomeric AS (70 μM) in 20 mM HEPES, pH 7.4 were incubated in a Thermomixer comfort (Eppendorf) at 37° C. and 600 rpm in the absence or presence of 10 or 50 μM D9. Aggregation was monitored with a Horiba FluoroMax-4 spectrofluorometer using the ThT fluorescence assay.

Chain of D1 dopamine receptor (P21728 whole entry): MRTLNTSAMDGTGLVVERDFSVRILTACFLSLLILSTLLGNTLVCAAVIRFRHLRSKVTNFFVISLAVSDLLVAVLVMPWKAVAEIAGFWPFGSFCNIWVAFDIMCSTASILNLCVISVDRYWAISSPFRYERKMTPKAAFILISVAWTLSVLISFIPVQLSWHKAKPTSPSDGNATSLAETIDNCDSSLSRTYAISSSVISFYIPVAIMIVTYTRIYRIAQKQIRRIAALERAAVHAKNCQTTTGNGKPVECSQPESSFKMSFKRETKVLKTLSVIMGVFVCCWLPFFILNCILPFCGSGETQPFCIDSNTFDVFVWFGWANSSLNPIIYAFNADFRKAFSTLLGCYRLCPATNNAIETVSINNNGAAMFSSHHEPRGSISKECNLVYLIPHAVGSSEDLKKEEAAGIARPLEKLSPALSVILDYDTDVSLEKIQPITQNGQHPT

- EC50 [2]: 2800 nM
- Inhibition of AS aggregation (ThT fluorescence) [4]: able to inhibit AS aggregation
SMILES: C[C@H]1c2ccc(NC(=O)CCC(=O)NCCc3ccc(O)c(O)c3)c(O)c2C(=O)C2=C(O)[C@]3(O)C(=O)C(C(N)=O)=C(O)CC3[C@@H](O)C21 (stereo partly shown) [Pegasus]
- Cytotoxicity (relative cell viability, MTT) [1]: no cytotoxic effect
- Localization and number of lysosomes (lysosome biogenesis) [3]: does not interfere with the biogenesis of lysosomes
